Reference: US20110172308A1, “Antagonsim of PGF2a Receptor to Treat Hyertension Characterized by Activation of the Renin-Angiotensin-Aldosterone System” (The Trustees of The University of Pennsylvania, priority 2008, published 2011)
“Also recorded” adds a separate entry of the source.

How the values were obtained:
[1] = test system: juxtaglomerular (JG) cells; assay: Renin mRNA expression in cultured JG cells treated with prostanoid agonists (real time RT-PCR); type: cell-based, mouse
Description: Culture of Juxtaglomerular (JG) cells: JG cells were prepared as described (Fujino et al., 2004, J Clin Invest. 114: 805-812). The kidneys were removed, decapsulated, minced with a surgical blade, incubated with 0.1% collagenase for 15 minutes at 37° C. and filtered through a 40 μm nylon mesh. The filtered cells were placed on 15 ml of 30% isosmotic Percoll solution (Amersham Biosciences) and centrifuged at 27,000 g for 20 minutes at 4° C. The cell layer near the surface, enriched with JG cells, was collected and washed. […] The resulting cDNA (40 ng) was used for quantitative real time PCR. Quantitative real time PCR Analysis of Gene Expression: TaqMan gene expression assays (Applied Biosystems, Foster City, Calif.; catalog No. 4331182) for FP (Mm004360055_m1), RENIN (Mm02342889_g1), TNFα (Mm00443258_m1), IL-1β (Mm00434228_m1), IL-12β (Mm01351787_m1), IL-4 (Mm00445259_m1,) IL-6 (Mm00446190_m1), IL-18 (Mm00434225_m1), iNOS (Mm01309902_m1), TGFβ (Mm00441724_m1), INFγ (Mm00801778_m1), IL-10 (Mm00439616_m1) were performed on an ABI Prism 7900 Sequence Detection System. […] An prostanoid agonist was administered as different concentrations and the expression of renin was monitored using real time RT-PCR. […]

JG cells = assay: cAMP content in cultured cells rich in JG cells; type: cell-based, mouse; conditions: vs vehicle controls
Source text: (§1) FIGS. 5A-5E depict data related to renin expression resulting from activation of FP or prostacyclin (IP) receptor in in vitro cultures of juxtaglomerular apparatus cells obtained from WT or FP knockout mice. FIG. 5A is a graph depicting the effect of FP agonists Latanoprost (Lata) and Travoprost (Trav), and IP agonist Cicaprost (Cica) on renin mRNA expression in JG enriched cultured cells. Each point represents mean±SEMs of 4 cell groups, repeated 3 times. FIG. 5B is a bar graph illustrating the effect of effect of Latanoprost and Cicaprost on cAMP content in cultured cells rich in JG cells. Data are presented as cAMP fold change from 3-6 independent samples (6-well plate) from 3 independent experiments. *, p<0.05 vs vehicle controls, n=3. FIG. 5C is a graph of the original recording of membrance capacitance in a single mouse JG cell from WT mice. […] FIG. 5E is a graph of whole cell currents were measured in response to 11 pulses from −150 to +90 mV in 30-mV steps for 200 ms from a holding potential of −30 mV. Pulses were applied before and after superfusion with 1 μM Latanoprost. Mean steady-state current-voltage curves from 4 independent experiments before (cycle) and after (square) 20 min of capacitance measurements are given.
Culture of Juxtaglomerular (JG) cells: JG cells were prepared as described (Fujino et al., 2004, J Clin Invest. 114: 805-812). […]

WT and FP knockout mice = assay: Mean arterial blood pressure after bolus of Ang II; type: in vivo, mouse; conditions: 50 ng/kg, acute intracarotid infusion, n=7
Description: FIGS. 3A-3C depicts data related to angiotensin II receptor (AT1) expression and blood pressure effects of Ang II injection in WT and FP knockout mice. FIG. 3A depicts AT1a and FIG. 3B depicts AT1b gene expression in aorta by real time RT-PCR. *p<0.01 (n=4) versus WT, repeated 3 times. FIG. 3C depicts blood pressure (BP) after Angiotengin II (Ang II) administration (50 ng/kg) compared with baseline in FP^−/− and WT littermates. Mean arterial BP was monitored in mice by pressure transducer connected to a catheter in left artery. Baseline BP is readout before injection. BP changes are depicted as difference between baseline and after injection at one min intervals. *p<0.01 versus WT, n=8-9.
Mean Arterial Blood Pressure (BP) Measurements: The right internal jugular vein and left carotid artery of anesthetized mice were cannulated with PE-10 tubing. The arterial catheter was connected to a Capto SP844 pressure transducer, and BP was monitored continuously with a PowerLab/8SP system. […]
To examine the acute effect of Ang II on blood pressure, WT and FPKO mice were sedated and subjected to a bolus infusion of Ang II. Blood pressure was measured directly using an arterial catheter connected to a pressure transducer. After the equilibration period and the baseline BP was recorded, mice were injected with a bolus of Ang II.

renin secretion = conditions: Jensen et al., 1996; Fujino et al., 2004; cited from earlier work
WT and FPKO mice = assay: Mean arterial blood pressure after PGF2α administration; type: in vivo, mouse
Description: Mean Arterial Blood Pressure (BP) Measurements: The right internal jugular vein and left carotid artery of anesthetized mice were cannulated with PE-10 tubing. The arterial catheter was connected to a Capto SP844 pressure transducer, and BP was monitored continuously with a PowerLab/8SP system. Mice were injected via the right internal jugular vein with […] or PGF2α administration to exclude volume-mediated BP changes.
Given that the lacZ gene was knocked into the endogenous FP receptor locus in the FP targeting allele, the receptor expression pattern was monitored by mapping β-galactosidase (β-gal) activity. Scattered activity of β-gal was detectable in the medial smooth muscle layer of renal small arteries in FP^+/− mice (FIG. 6A), but was not evident in FP^+/− mouse aorta nor in the atherosclerotic lesions of Ldlr^−/−/FP^−/− mice (FIGS. 6B-6G). To assess the systemic effect of PGF2α, WT and FPKO mice were sedated in order to measure blood pressure directly in the heart. PGF2α was administered and blood pressure was monitored. Once blood pressure returned to baseline, the next dose of PGF2α was administered (FIG. 6H). Four doses of PGF2α were tested: 10 μg/kg body weight, 30 μg/kg, 90 μg/kg and […].

single WT JG cells = assay: Patch-clamp membrane capacitance of single JG cells; type: cell-based, mouse; conditions: single WT JG cells in vitro, 1 μM Latanoprost
Source text: as §1

CCC#CC[C@H](C)[C@H](O)C#C[C@@H]1[C@H]2C/C(=C/COCC(=O)O)C[C@H]2C[C@H]1O [Cicaprost]
expression of renin in JG cells from FPKO mice ([1]; JG cells from FPKO mice, 20 hours incubation, various concentrations): stimulated | effects as a renin secretagogue, WT compared with FP−/− mice ([1]; JG cells from WT vs FP−/− mice): similar | JG cell cAMP (JG cells): increase

angiotensin II (DRVYIHPF; Angiotensin-2; UniProt P01019 25-32, looked up) [Ang II, Ang II peptide, a powerful vasoconstrictor]
hypertensive response to acute infusion of Ang II in FP KO mice (WT and FP knockout mice; FP KO mice): 37.5±5.6 | hypertensive response to acute infusion of Ang II in WT controls (WT and FP knockout mice; WT controls): 20.3±4.7

CCCCC[C@H](O)/C=C/[C@H]1[C@H](O)CC(=O)[C@@H]1C/C=C\CCCC(=O)O [PGE2]
renin secretagogue activity (renin secretion): potent renin secretagogues

prostaglandin F2α [PGF2α]
renin secretagogue activity (renin secretion): not | blood pressure after PGF2α administration in FPKO mice (WT and FPKO mice; FPKO mice, 10, 30, 90, 270 μg/kg): not | blood pressure in FP−/− mice at the highest rate of infusion (WT and FPKO mice; FP−/− mice, highest rate of infusion): rise in blood pressure | blood pressure after PGF2α administration in WT mice (WT and FPKO mice; WT mice, 10, 30, 90, 270 μg/kg): increased; also recorded: dose dependent

CCCCC[C@H](O)/C=C/[C@@H]1[C@H]2C/C(=C/CCCC(=O)O)O[C@H]2C[C@H]1O [Prostacyclin (PGI2), Prostacyclin]
renin secretagogue activity (renin secretion): potent renin secretagogues

CC(C)OC(=O)CCC/C=C\C[C@@H]1[C@@H](CC[C@@H](O)CCc2ccccc2)[C@H](O)C[C@@H]1O [Latanoprost]
JG cell cAMP (JG cells): failed to increase | change in membrane capacitance (single WT JG cells): no change
